Data reported in ChEMBL document CHEMBL1125233, “2,4-Diamino-5-benzylpyrimidines as antibacterial agents. 14. 2,3-Dihydro-1-(2,4-diamino-5-pyrimidyl)-1H-indenes as conformationally restricted analogues of trimethoprim” (J Med Chem, 1991).

What was measured:
Dihydrofolate reductase [1] = molecular target: T1, Dihydrofolate reductase (Rattus norvegicus, UniProt Q920D2); assay: Inhibitory activity against rat liver dihydrofolate reductase at 10e8 M; conditions: read-out: I50
T1 sequence (Q920D2 whole entry): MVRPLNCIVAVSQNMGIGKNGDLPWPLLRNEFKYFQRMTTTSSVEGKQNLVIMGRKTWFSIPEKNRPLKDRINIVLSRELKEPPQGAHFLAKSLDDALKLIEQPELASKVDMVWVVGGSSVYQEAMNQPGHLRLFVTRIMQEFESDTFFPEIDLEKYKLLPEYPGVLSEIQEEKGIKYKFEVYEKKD

Dihydrofolate reductase [2] = molecular target: Dihydrofolate reductase (Neisseria gonorrhoeae, UniProt P04174); assay: Inhibitory activity against Neisseria gonorrhoeae dihydrofolate reductase at 10e8 M; conditions: read-out: I50
Chain of Dihydrofolate reductase (Neisseria gonorrhoeae, UniProt P04174) (P04174 whole entry): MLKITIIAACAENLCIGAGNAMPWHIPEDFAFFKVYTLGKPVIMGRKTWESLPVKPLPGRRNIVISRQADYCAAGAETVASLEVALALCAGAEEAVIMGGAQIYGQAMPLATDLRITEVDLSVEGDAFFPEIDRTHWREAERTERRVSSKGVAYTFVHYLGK

| Compound | IC50 (Dihydrofolate reductase [1]) [µM] | IC50 (Dihydrofolate reductase [2]) [µM] |
| --- | --- | --- |
| COc1cc2c(cc1OC)C(c1cnc(N)nc1N)CC2 (stereo not drawn) | 410 | 9.7 |
| COc1ccc(Cc2cnc(N)nc2N)cc1OC [DIAVERIDINE] | 70 |  |
